Data reported in article PMC4160109 (Clinical cancer research : an official journal of the …, 2014).

What was measured:
advanced solid tumors = settings: cited from earlier work
patients = settings: cited from earlier work
[1] = Plasma PK of oral rigosertib in phase I patients; format: in vivo, human; settings: for CI7F: plasma, mean ± SD
[2] = Urine PK of oral rigosertib in phase I patients; format: in vivo, human
[3] = test system: advanced solid malignancies; test: Phase I antitumor activity; format: in vivo, human; settings: for median time on study: all patients
dogs = test: Preclinical severely toxic dose in 10% of animals, dogs; format: in vivo, dog
rats = test: Preclinical severely toxic dose in 10% of animals, rats; format: in vivo, rat; settings: twice daily
[4] = test system: patients with advanced solid malignancies; settings: in vivo

## C=CCN(/C=C1/C(=O)O[C@H](COC)[C@@]2(C)C1=C(O)C(=O)C1=C2[C@H](OC(C)=O)C[C@]2(C)C(=O)CC[C@@H]12)CC=C [PX-866]
Advanced solid tumors
  phase I RR: 0%
patients
  hyperglycemia: do not cause hyperglycemia

## Nc1cc(C(F)(F)F)c(-c2cc(N3CCOCC3)nc(N3CCOCC3)n2)cn1 [BKM120]
Advanced solid tumors
  phase I RR: 2.8%

## COc1cc(OC)c(/C=C/S(=O)(=O)Cc2ccc(OC)c(NCC(=O)O)c2)c(OC)c1 [rigosertib, sodium (E)-2-{2-methoxy-5-[(2′,4′ ,6′-trimethoxys-tyrylsulfonyl)methyl]phenylamino}acetate]
[1]; oral 70-700 mg twice daily
  plasma pharmacokinetics, dose dependence: linear and dose proportional
[1]; 70 mg twice daily oral, Day 1 cycle 1, n = 3
  CI7F: 71.54 ±42.87 I7h
[1]; 140 mg twice daily oral, Day 1 cycle 1, n = 4
  CI7F: 171.29 ± 155.74 I7h
[1]; 140 mg twice daily oral, Day 21 cycle 1, n = 4
  CI7F: 55.64 ± 36.62 I7h
[1]; 280 mg twice daily oral, Day 1 cycle 1, n = 5
  CI7F: 122.84 ± 123.67 I7h
[1]; 280 mg twice daily oral, Day 21 cycle 1, n = 3
  CI7F: 127.45 ±66.13 I7h
[1]; 560 mg twice daily oral, Day 1 cycle 1, n = 32
  CI7F: 93.28 ± 58.24 I7h
[1]; 560 mg twice daily oral, Day 21 cycle 1, n = 24
  CI7F: 116.33 ±56.32 I7h
[1]; 700 mg twice daily oral, Day 1 cycle 1, n = 7
  CI7F: 64.62 ± 34.70 I7h
[1]; 700 mg twice daily oral, Day 21 cycle 1, n = 2
  CI7F: 149.9 ±51.79 I7h
[2]; nonsymptomatic patients, mean (SD 2.8)
  24-hour urine excretion: 18.7 mg
[2]; patients with urinary symptoms, mean (SD 7.9)
  24-hour urine excretion: 16.6 mg
[3]; 2/46 evaluable patients, all dose levels
  overall response rate (RR): 4.3%
[3]; 8 patients with stable disease for 12 or more weeks, range
  duration of stable disease: 12–36 weeks
[3]; 10/46 evaluable patients, stable disease ≥ 12 weeks
  clinical benefit rate (CBR = CR + PR + stable disease): 21.7%
[3]; all dose levels
  patients with stable disease for ≥ 12 weeks: 8
[3]
  median time on study: 2 cycles
[3]; range, 1–101+
  median time on study: 6 weeks
[3]; one patient, platinum-refractory HPV-positive HNSCC, 560 mg twice daily
  best response: partial response
[3]; patient with CR, HPV-negative HNSCC, 280 mg twice daily
  time on study: ≥ 101 weeks
[3]; patient with PR, HPV-positive HNSCC, 560 mg twice daily
  time on study: 50 weeks
[3]; patient with PR, HPV-positive HNSCC, 560 mg twice daily, cycle 5
  tumor size decrease from its maximum: 40%
dogs; 60 kg human
  human equivalent of severely toxic dose in 10% of dogs and rats: 12.2 mg/kg
dogs; 60 kg human with a safety factor of 10
  human equivalent of severely toxic dose in 10% of dogs and rats: 73 mg
dogs; dogs, twice daily
  severely toxic dose in 10% of animals: 75 mg/kg
rats
  severely toxic dose in 10% of animals: 75 mg/kg
[4]; human
  Fatigue, treatment-related AE (patients): 1
  Hematuria, treatment-related AE (patients): 2
  Pelvic pain, treatment-related AE (patients): 1
  median time to onset of urinary symptoms: 4 weeks
  patients experiencing serious AEs: 13
  patients with doses held for toxicity: 14
  patients with doses reduced for toxicity: 13
  patients with grade 2 or 3 urinary symptoms: 15
  patients with serious AE considered possibly drug-related: 1
  time to resolution of urinary symptoms after drug discontinuation: ≤ 14 days
[4]; human, 21 days
  Patients with a DLT: 2
  patients with a DLT: 1
[4]; human, po, 21 days
  recommended phase II dose (RP2D): 560 mg
[4]
  patients with grade 3 nonhematologic toxicity: Seven
  tolerability of dose level: considered intolerable
[4]; po
  Dose-limiting toxicities: hematuria and dysuria

## COc1ccc(Cl)c(Nc2nc3ccccc3nc2NS(=O)(=O)c2cccc(NC(=O)C(C)(C)N)c2)c1 [XL147]
patients
  hyperglycemia: do not cause hyperglycemia

## CC[C@@H]1C(=O)N(C)c2cnc(Nc3ccc(C(=O)NC4CCN(C)CC4)cc3OC)nc2N1C1CCCC1 [BI-2536]
Advanced solid tumors
  phase I CBR: 32%
  phase I PR: 0%
  phase I stable disease: 32%
